Data as given in patent US6737383B1, “Herbicidal oxadiazolidines” (priority 1999, dated 2004).

Tests used:
morningglory = assay: Test B pre/postemergence morningglory; format: in vivo, Ipomoea hederacea
Summary of the method: (§1)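 Response is a visual 0-to-10 score relative to untreated plants, where 0 means no effect and 10 means complete control, taken twelve to sixteen days after application. Treatments went onto soil at planting and onto foliage of 1- to 4-leaf plants, using a surfactant-containing non-phytotoxic solvent.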

smallflower flatsedge = assay: Test B flood test smallflower flatsedge; format: in vivo, Cyperus difformis
Summary of the method: (§2)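 Flood test on plants grown to the 2-leaf stage; treated plants kept in greenhouse twelve to sixteen days, then visually rated against controls on a 0 (no effect) to 10 (complete control) scale.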

sugar beet = assay: Test B pre/postemergence sugar beet; format: in vivo, Beta vulgaris
Summary of the method: as §1

pigweed = assay: Test B pre/postemergence pigweed; format: in vivo, Amaranthus retroflexus
Summary of the method: as §1

blackgrass = assay: Test B pre/postemergence blackgrass; format: in vivo, Alopecurus myosuroides
Summary of the method: as §1

surinam grass = assay: Test B pre/postemergence surinam grass; format: in vivo, Brachiaria decumbens
Summary of the method: as §1

rice = assay: Test B flood test rice; format: in vivo, Oryza sativa
Summary of the method: as §2

wild oat = assay: Test B pre/postemergence wild oat; format: in vivo, Avena fatua
Summary of the method: as §1

corn = assay: Test B pre/postemergence corn; format: in vivo, Zea mays
Summary of the method: as §1

purple nutsedge = assay: Test B pre/postemergence purple nutsedge; format: in vivo, Cyperus rotundus
Summary of the method: as §1

giant foxtail = assay: Test B pre/postemergence giant foxtail; format: in vivo, Setaria faberii
Summary of the method: as §1

cocklebur = assay: Test B pre/postemergence cocklebur; format: in vivo, Xanthium strumarium
Summary of the method: as §1

duck salad = assay: Test B flood test duck salad; format: in vivo, Heteranthera limosa
Summary of the method: as §2

bedstraw = assay: Test B pre/postemergence bedstraw; format: in vivo, Galium aparine
Summary of the method: as §1

crabgrass = assay: Test B pre/postemergence crabgrass; format: in vivo, Digitaria sanguinalis
Summary of the method: as §1

soybean = assay: Test B pre/postemergence soybean; format: in vivo, Glycine max
Summary of the method: as §1

[1] = Preemergence, Rate 62 g/ha, scale of 0 to 10 where 0 is no effect and 10 is complete control
[2] = Preemergence, Rate 250 g/ha, scale of 0 to 10 where 0 is no effect and 10 is complete control
[3] = Preemergence, Rate 500 g/ha, scale of 0 to 10 where 0 is no effect and 10 is complete control
[4] = Rate 62 g/ha, Postemergence, scale of 0 to 10 where 0 is no effect and 10 is complete control
[5] = Rate 125 g/ha, Preemergence, scale of 0 to 10 where 0 is no effect and 10 is complete control
[6] = Rate 500 g/ha, Postemergence, scale 0 to 10, 0 no effect, 10 complete control
[7] = Rate 62 g/ha, headed Pre-emergence (flood test species), scale 0 to 10 (0 no effect, 10 complete control)
[8] = Rate 125 g/ha, Pre-emergence, flood test species, scale 0 to 10 where 0 is no effect and 10 is complete control
[9] = Rate 250 g/ha, Pre-emergence, flood-test species, scale 0 to 10, 0 is no effect, 10 is complete control
[10] = Rate 500 g/ha, Pre-emergence, flood test species, scale 0 to 10 (0 no effect, 10 complete control)
[11] = Rate 125 g/ha, Postemergence, scale 0 to 10

## CC(C)N(C(=O)n1oc(=O)n(C2CC2)c1=O)c1ccc(F)cc1 [Compound 242]
morningglory; [1]
  Morningglory plant response rating: 2
morningglory; [2]
  Morningglory plant response rating: 5
morningglory; [3]
  Plant response rating, Morningglory: 10
morningglory; [4]
  Morningglory plant response rating: 0
morningglory; [5]
  Morningglory plant response rating: 2
morningglory; Rate 250 g/ha, Postemergence
  Plant response rating (0 to 10; 0 is no effect, 10 is complete control), Morningglory: 7
morningglory; [6]
  Morningglory plant response rating: 8
Smallflower flatsedge; [7]
  S. Flatsedge plant response rating: 0
Smallflower flatsedge; [8]
  S. Flatsedge plant response rating: 0
Smallflower flatsedge; [9]
  S. Flatsedge plant response rating: 0
Smallflower flatsedge; [10]
  S. Flatsedge plant response rating: 0
Sugar beet; [1]
  Sugarbeets plant response rating: 3
Sugar beet; [3]
  Plant response rating, Sugarbeets: 8
Sugar beet; [4]
  Sugarbeets plant response rating: 0
Sugar beet; [5]
  Sugarbeets plant response rating: 7
Sugar beet; [6]
  Sugarbeets plant response rating: 8
pigweed; [1]
  Redroot pigweed plant response rating: 9
pigweed; [2]
  Redroot pigweed plant response rating: 10
pigweed; [3]
  Plant response rating, Redroot pigweed: 10
pigweed; [4]
  Redroot pigweed plant response rating: 0
pigweed; [5]
  Redroot pigweed plant response rating: 10
pigweed; Rate 250 g/ha, Postemergence
  Plant response rating (0 to 10; 0 is no effect, 10 is complete control), Redroot pigweed: 4
pigweed; [6]
  Redroot pigweed plant response rating: 8
blackgrass; [1]
  Blackgrass plant response rating: 9
blackgrass; [2]
  Blackgrass plant response rating: 10
blackgrass; [3]
  Plant response rating, Blackgrass: 10
blackgrass; [4]
  Blackgrass plant response rating: 8
blackgrass; [11]
  Blackgrass plant response rating: 9
blackgrass; [5]
  Blackgrass plant response rating: 10
blackgrass; Rate 250 g/ha, Postemergence
  Plant response rating (0 to 10; 0 is no effect, 10 is complete control), Blackgrass: 9
blackgrass; [6]
  Blackgrass plant response rating: 9
Surinam grass; [1]
  B. signalgrass plant response rating: 6
Surinam grass; [2]
  B. signalgrass plant response rating: 9
Surinam grass; [3]
  Plant response rating, B. signalgrass: 10
Surinam grass; [4]
  B. signalgrass plant response rating: 1
Surinam grass; Rate 125 g/ha, Postemergence, scale 0 (no effect) to 10 (complete control)
  B. signalgrass plant response rating: 8
Surinam grass; [5]
  B. signalgrass plant response rating: 9
Surinam grass; Rate 250 g/ha, Postemergence
  Plant response rating (0 to 10; 0 is no effect, 10 is complete control), B. signalgrass: 8
Surinam grass; [6]
  B. signalgrass plant response rating: 9
rice; [7]
  Rice plant response rating: 0
rice; [8]
  Rice plant response rating: 0
rice; [9]
  Rice plant response rating: 0
rice; [10]
  Rice plant response rating: 0
Wild oat; [1]
  Wild oats plant response rating: 7
Wild oat; [2]
  Wild oats plant response rating: 9
Wild oat; [3]
  Plant response rating, Wild oats: 10
Wild oat; [4]
  Wild oats plant response rating: 0
Wild oat; [5]
  Wild oats plant response rating: 9
Wild oat; [6]
  Wild oats plant response rating: 8
corn; [1]
  Corn plant response rating: 0
corn; [2]
  Corn plant response rating: 6
corn; [3]
  Plant response rating, Corn: 9
corn; [4]
  Corn plant response rating: 0
corn; [5]
  Corn plant response rating: 0
corn; Rate 250 g/ha, Postemergence
  Plant response rating (0 to 10; 0 is no effect, 10 is complete control), Corn: 0
corn; [6]
  Corn plant response rating: 6
Purple nutsedge; [1]
  Nutsedge plant response rating: 10
Purple nutsedge; [2]
  Nutsedge plant response rating: 10
Purple nutsedge; [3]
  Plant response rating, Nutsedge: 10
Purple nutsedge; [4]
  Nutsedge plant response rating: 0
Purple nutsedge; [5]
  Nutsedge plant response rating: 10
Purple nutsedge; [6]
  Nutsedge plant response rating: 5
Giant foxtail; [1]
  Giant foxtail plant response rating: 10
Giant foxtail; [2]
  Giant foxtail plant response rating: 10
Giant foxtail; [3]
  Plant response rating, Giant foxtail: 10
Giant foxtail; [4]
  Giant foxtail plant response rating: 7
Giant foxtail; [5]
  Giant foxtail plant response rating: 10
Giant foxtail; Rate 250 g/ha, Postemergence
  Plant response rating (0 to 10; 0 is no effect, 10 is complete control), Giant foxtail: 8
Giant foxtail; [6]
  Giant foxtail plant response rating: 9
cocklebur; [1]
  Cocklebur plant response rating: 2
cocklebur; [2]
  Cocklebur plant response rating: 2
cocklebur; [3]
  Plant response rating, Cocklebur: 3
cocklebur; [4]
  Cocklebur plant response rating: 5
cocklebur; [11]
  Cocklebur plant response rating: 5
cocklebur; Rate 250 g/ha, Postemergence
  Plant response rating (0 to 10; 0 is no effect, 10 is complete control), Cocklebur: 7
cocklebur; [6]
  Cocklebur plant response rating: 7
Duck salad; [7]
  Ducksalad plant response rating: 0
Duck salad; [8]
  Ducksalad plant response rating: 0
Duck salad; [9]
  Ducksalad plant response rating: 0
Duck salad; [10]
  Ducksalad plant response rating: 0
bedstraw; [1]
  Bedstraw plant response rating: 0
bedstraw; [2]
  Bedstraw plant response rating: 9
bedstraw; [3]
  Plant response rating, Bedstraw: 10
bedstraw; [4]
  Bedstraw plant response rating: 2
bedstraw; [11]
  Bedstraw plant response rating: 5
bedstraw; [5]
  Bedstraw plant response rating: 7
bedstraw; Rate 250 g/ha, Postemergence
  Plant response rating (0 to 10; 0 is no effect, 10 is complete control), Bedstraw: 7
bedstraw; [6]
  Bedstraw plant response rating: 8
crabgrass; [1]
  Crabgrass plant response rating: 9
crabgrass; [2]
  Crabgrass plant response rating: 10
crabgrass; [3]
  Plant response rating, Crabgrass: 10
crabgrass; [4]
  Crabgrass plant response rating: 8
crabgrass; [5]
  Crabgrass plant response rating: 10
crabgrass; Rate 250 g/ha, Postemergence
  Plant response rating (0 to 10; 0 is no effect, 10 is complete control), Crabgrass: 9
crabgrass; [6]
  Crabgrass plant response rating: 9
soybean; [1]
  Soybean plant response rating: 0
soybean; [2]
  Soybean plant response rating: 6
soybean; [3]
  Plant response rating, Soybean: 7
soybean; [4]
  Soybean plant response rating: 4
soybean; [5]
  Soybean plant response rating: 2
soybean; [6]
  Soybean plant response rating: 6
